#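 Values below derive from 48-hour exposures of cells grown in 96-well plates, with endpoints linearly interpolated between the two concentrations bracketing the appropriate inhibition level. GI50 marks 50% less growth. The concentration for full growth arrest is given as TGI.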
# Legend:
# Assay in all cases: growth of human tumour cells (NCI), 48 h
# HT29 colon = system: HT29 colon
# UACC-62 melanoma = system: UACC-62 melanoma
# 786-0 renal = system: 786-0 renal
# IGROV1 ovarian = system: IGROV1 ovarian
# HOP-92 NSCLC = system: HOP-92 NSCLC
# RPMI-8226 leukemia = system: RPMI-8226 leukemia
# CAKI-1 renal = system: CAKI-1 renal
# NCI-H522 lung = system: NCI-H522 lung
# MCF7 breast = system: MCF7 breast
# PC-3 prostate = system: PC-3 prostate
# OVCAR-8 ovarian = system: OVCAR-8 ovarian
# SN12C renal = system: SN12C renal
# A549 NSCLC = system: A549 NSCLC
# UACC-257 melanoma = system: UACC-257 melanoma
# LOX IMVI melanoma = system: LOX IMVI melanoma
Compound,TGI (HT29 colon),TGI (UACC-62 melanoma),TGI (786-0 renal),TGI (IGROV1 ovarian),TGI (HOP-92 NSCLC),TGI (RPMI-8226 leukemia),TGI (CAKI-1 renal),TGI (NCI-H522 lung),TGI (MCF7 breast),TGI (PC-3 prostate),TGI (OVCAR-8 ovarian),TGI (SN12C renal),TGI (A549 NSCLC),TGI (UACC-257 melanoma),TGI (LOX IMVI melanoma),GI50 (UACC-62 melanoma),GI50 (SN12C renal)
S=c1[nH]c(=S)c2cc(Sc3ccc4[nH]c(=S)[nH]c(=S)c4c3)ccc2[nH]1,> 100 µM,36.3 µM,40 µM,86.8 µM,57.4 µM,54.9 µM,83.7 µM,> 100 µM,> 100 µM,> 100 µM,48.1 µM,> 100 µM,> 100 µM,> 100 µM,,,
OC1COC(n2c3ccc(Br)cc3c3ccc4c5ccccc5[nH]c4c32)C(O)C1O (centres undefined),11.4 µM,1.53 µM,17.8 µM,8.21 µM,9.38 µM,15.8 µM,10.6 µM,11.3 µM,14.2 µM,12 µM,15.8 µM,16 µM,23.7 µM,19.9 µM,10.4 µM,,
CC[C@@H](/C=C\CCC1(C[C@H](O)CCC=C(C)C)OCCO1)O[Si](C(C)C)(C(C)C)C(C)C,65.9 µM,64.5 µM,31.4 µM,42.1 µM,66.8 µM,42.7 µM,87.1 µM,39.2 µM,32 µM,> 100 µM,38 µM,32.8 µM,> 100 µM,65.2 µM,38.8 µM,,
CC(C)CCn1c(=O)c2c(=O)[nH][nH]c2c2ccccc21,> 100 µM,,> 100 µM,> 100 µM,> 100 µM,> 100 µM,,> 100 µM,> 100 µM,> 100 µM,> 100 µM,> 100 µM,> 100 µM,> 100 µM,> 100 µM,,
O[C@@H]1C[C@@H]2N[C@@](O)(C[C@@H]2O)[C@H]1O,> 100 µM,> 100 µM,> 100 µM,> 100 µM,> 100 µM,> 100 µM,,> 100 µM,> 100 µM,> 100 µM,> 100 µM,> 100 µM,> 100 µM,> 100 µM,> 100 µM,,
C=CC[C@H]1[C@H](O[Si](C)(C)C(C)(C)C)C=CC(=O)[C@@H]1CC(=O)N(Cc1ccccc1)Cc1ccccc1,29.2 µM,> 100 µM,84.9 µM,> 100 µM,8.51 µM,> 100 µM,90.2 µM,> 100 µM,> 100 µM,> 100 µM,> 100 µM,90.4 µM,> 100 µM,65.8 µM,26.9 µM,,
COc1cc2c(cc1OC)CC(N=[N+]=[N-])c1cc(OC)c(OC)cc1/C=C\2 (centres undefined),> 100 µM,> 100 µM,> 100 µM,> 100 µM,> 100 µM,> 100 µM,95.3 µM,> 100 µM,> 100 µM,> 100 µM,55.8 µM,> 100 µM,> 100 µM,> 100 µM,> 100 µM,,
Cc1ccc2c(n1)C(=O)c1ccccc1C2=O,> 87.9 µM,43.6 µM,> 100 µM,73.4 µM,> 100 µM,> 95.8 µM,> 89.2 µM,52.4 µM,38.8 µM,68.8 µM,74.8 µM,> 88.2 µM,69 µM,37.9 µM,53.1 µM,,
Cc1ccc(Nc2cc(=O)[nH]c(=S)[nH]2)cc1,> 100 µM,> 100 µM,> 100 µM,> 100 µM,> 100 µM,> 100 µM,> 100 µM,> 100 µM,> 100 µM,> 100 µM,> 100 µM,> 100 µM,> 100 µM,> 100 µM,> 100 µM,,
CNC(=S)N/N=C/c1cccc(C)n1,> 100 µM,56.4 µM,98.5 µM,> 100 µM,> 100 µM,> 100 µM,> 100 µM,> 86.2 µM,> 100 µM,> 100 µM,> 75.7 µM,64.1 µM,> 100 µM,> 100 µM,> 73.8 µM,,
COC(=O)c1cc(C#Cc2cc(OC)ccc2OC)ccc1OC,> 100 µM,> 100 µM,> 100 µM,> 100 µM,85.9 µM,41.3 µM,> 100 µM,> 100 µM,> 100 µM,> 100 µM,> 100 µM,> 100 µM,> 100 µM,> 100 µM,> 100 µM,29.3 µM,37.9 µM
CC(C)=CCC/C(C)=C/CC/C(C)=C/CC/C(C)=C/CC/C(C)=C\CC/C(C)=C/CC/C(C)=C/CC/C(C)=C/Cc1cc(O)ccc1O,3.81 µM,0.857 µM,4.09 µM,1.47 µM,> 32.8 µM,,0.703 µM,4.34 µM,2.89 µM,2.44 µM,3.42 µM,> 100 µM,> 22.6 µM,2.91 µM,,,
COC(=O)CCC12CCC(O1)c1ccccc12 (centres undefined),> 100 µM,> 100 µM,> 100 µM,> 100 µM,> 100 µM,> 100 µM,> 100 µM,> 100 µM,> 100 µM,> 100 µM,> 100 µM,> 100 µM,> 100 µM,> 100 µM,> 100 µM,,
N#Cc1ccc(OCc2nc3cc(C(F)(F)F)ccc3nc2-c2ccccc2)cc1,> 100 µM,> 100 µM,> 100 µM,> 100 µM,> 100 µM,> 100 µM,> 100 µM,> 100 µM,> 100 µM,> 100 µM,> 100 µM,> 100 µM,> 100 µM,> 100 µM,> 100 µM,,
COC(=O)/N=[N+](\[O-])C(c1ccc(OC)cc1)C1CCCCC1 (centres undefined),5.62 µM,25 µM,32.4 µM,> 100 µM,36.8 µM,4.55 µM,10.3 µM,5.1 µM,> 100 µM,22.5 µM,38.3 µM,11.3 µM,34.9 µM,25.3 µM,> 100 µM,,
O=C(CSCC(=O)N/N=C\c1ccc(-c2ccccc2)cc1)N/N=C\c1ccc(-c2ccccc2)cc1,76.6 µM,62.4 µM,> 100 µM,29.2 µM,> 100 µM,,> 100 µM,37.2 µM,> 100 µM,88.1 µM,58.2 µM,53.6 µM,54.4 µM,> 100 µM,32.4 µM,,

Compound,TGI (HT29 colon),TGI (UACC-62 melanoma),TGI (786-0 renal),TGI (IGROV1 ovarian),TGI (HOP-92 NSCLC),TGI (RPMI-8226 leukemia),TGI (CAKI-1 renal),TGI (NCI-H522 lung),TGI (MCF7 breast),TGI (PC-3 prostate),TGI (OVCAR-8 ovarian),TGI (SN12C renal),TGI (A549 NSCLC),TGI (UACC-257 melanoma),TGI (LOX IMVI melanoma),GI50 (UACC-62 melanoma),GI50 (SN12C renal)
COCc1cc2c(cc1/C=C/[N+](=O)[O-])OCO2,34.6 µM,32 µM,33.5 µM,51.1 µM,36.8 µM,> 100 µM,34.2 µM,41.2 µM,48.9 µM,24.6 µM,55.2 µM,34 µM,32.2 µM,30.8 µM,67.9 µM,,
N#CC1(C#N)NC(c2ccsc2)C(C#N)(C#N)NC1c1ccsc1 (centres undefined),> 100 µM,> 100 µM,> 100 µM,> 100 µM,> 100 µM,> 100 µM,> 100 µM,> 100 µM,> 100 µM,> 100 µM,> 100 µM,> 100 µM,> 100 µM,> 100 µM,> 100 µM,,
Nc1nc(Cl)cc(Nc2cc(Cl)cc(Cl)c2)n1,30.6 µM,33.5 µM,33.7 µM,35.4 µM,40.3 µM,66.3 µM,48.2 µM,24.3 µM,41.6 µM,41.5 µM,28.3 µM,40.7 µM,58.9 µM,32.8 µM,32.3 µM,,
Clc1ccc(C2NN=C3c4ccccc4OCC32)cc1 (centres undefined),12.2 µM,> 47.2 µM,29.5 µM,22.3 µM,> 100 µM,6.93 µM,> 100 µM,3.63 µM,> 45.2 µM,64.3 µM,55.2 µM,22.1 µM,> 100 µM,87.4 µM,27.6 µM,,
COc1ccc(CCNC(=O)Cc2cc(OC)c(OC)cc2CO)cc1OC,> 100 µM,> 100 µM,> 100 µM,> 100 µM,> 100 µM,> 100 µM,> 100 µM,> 100 µM,> 100 µM,> 100 µM,> 100 µM,> 100 µM,> 100 µM,> 100 µM,> 100 µM,,
C[Si](C)(OCCS(=O)(=O)O)C1S(=O)(=O)OCCOS1(=O)=O,> 100 µM,> 100 µM,> 100 µM,> 100 µM,> 100 µM,> 100 µM,84 µM,> 100 µM,> 100 µM,> 100 µM,> 100 µM,> 100 µM,,> 100 µM,> 100 µM,,
COc1ccc(CC2NC(=O)/C=C/CC(C(C)C3OC3c3ccccc3)OC(=O)C(CC(C)C)OC(=O)C(C)CNC2=O)cc1Cl (centres undefined),0.000108 µM,,> 0.1 µM,,> 0.1 µM,> 0.1 µM,> 0.1 µM,> 0.1 µM,> 0.1 µM,> 0.1 µM,> 0.1 µM,> 0.1 µM,> 0.1 µM,> 0.1 µM,> 0.1 µM,,
Cc1nc2c(sc3nc4ccccc4n32)c(=O)[nH]1,,> 100 µM,> 100 µM,> 100 µM,> 100 µM,> 100 µM,> 100 µM,> 100 µM,> 100 µM,> 100 µM,> 100 µM,,> 100 µM,> 100 µM,> 100 µM,,
COc1ccc(-c2cc(-c3cc(OC)c(OC)c(OC)c3)cc(-c3cc4ccccc4oc3=O)n2)cc1,> 100 µM,33.6 µM,5.34 µM,24.6 µM,16.8 µM,,17.3 µM,34.5 µM,> 100 µM,76.8 µM,16.3 µM,49.7 µM,60 µM,63.3 µM,> 100 µM,,
CCC1C(c2cc(OC)c(OC)c(OC)c2)c2cc3c(cc2OC1N1CCOCC1)OCO3 (centres undefined),7.36 µM,24.7 µM,28.8 µM,17.4 µM,41 µM,,,21.8 µM,15.5 µM,14.1 µM,17.6 µM,28.6 µM,17.8 µM,55.5 µM,10.5 µM,,
COc1ccc2c(c1)c1c(n2CCN2CCCCC2)-c2ccccc2CC1,17.2 µM,,34.5 µM,30.3 µM,31.9 µM,56.1 µM,26.9 µM,21.8 µM,30.2 µM,30.3 µM,29 µM,33.5 µM,36.6 µM,32.1 µM,40.4 µM,,
Cc1cc2c(c(C=NCc3ccccc3)c1)OC1(C=C2)Oc2ccccc2C(=O)N1C (centres undefined),51.7 µM,48.2 µM,> 100 µM,68.1 µM,43 µM,50.4 µM,66.5 µM,,> 100 µM,75.3 µM,35.6 µM,78 µM,> 100 µM,67 µM,34.5 µM,,
Cc1cn(Cc2ccccc2CCl)c(=O)[nH]c1=O,79.7 µM,28.2 µM,30.2 µM,13.9 µM,> 100 µM,,24.8 µM,23.9 µM,19 µM,44.2 µM,29.2 µM,32.7 µM,36.6 µM,31.1 µM,,,
O=S1C2=C(Cc3ccccc3)C(Cc3ccccc3)=C1CCc1cccc(c1)CC2,26 µM,24.7 µM,28.9 µM,,26.4 µM,,28.7 µM,27.6 µM,25.7 µM,29.3 µM,34 µM,30.6 µM,36.3 µM,27.8 µM,28.1 µM,,
CSC1=C(c2ccc(Cl)cc2)SC(N2CCCCC2)N1c1ccc([N+](=O)[O-])cc1 (centres undefined),> 100 µM,> 100 µM,> 100 µM,> 100 µM,72.3 µM,45.2 µM,> 100 µM,63.3 µM,> 100 µM,63.4 µM,93.7 µM,,> 100 µM,85.8 µM,> 100 µM,,
O=C1CCCCc2cccc(O)c21,> 100 µM,> 100 µM,> 100 µM,> 100 µM,> 100 µM,> 100 µM,> 100 µM,> 100 µM,> 100 µM,> 100 µM,> 100 µM,> 100 µM,,> 100 µM,> 100 µM,,
